Experiments:
B. subtilis 168 [1] = assay: fitness (endpoint OD595 vs no drug) (fraction); higher = more growth
How it was run: (§1)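 Growth medium was TSB, LB Lennox or CY, and plates were kept at 37 °C. Inoculation was at OD595 0.01 in 384-well plates, at 30 µl per well or 55 µl for S. pneumoniae. OD595 was monitored every 30 min for 14 h and background-subtracted using the first reading. Fitness is the optical density on entering stationary phase divided by the robust mean of no-drug controls, with values capped at 1.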

S. aureus Newman [2] = assay: as above
How it was run: as §1

B. subtilis 168 [3] = assay: Bliss interaction score (quartile over a dose matrix) (fitness difference); higher = more antagonism (negative = synergy)
How it was run: (§2)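 Quartiles summarise the Bliss score over technical, biological and donor/recipient replicates, where the score is observed minus expected fitness under a product model. Expected fitness uses single-drug values inferred from combination data. Fitness is OD595 at entry into stationary phase over the plate's robust no-drug mean, capped at 1.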

S. aureus DSM 20231 = assay: as above
How it was run: as §2

S. aureus Newman [4] = assay: as above
How it was run: as §2

S. pneumoniae D39V [5] = assay: as above
How it was run: as §2

S. pneumoniae D39V [6] = assay: fitness (endpoint OD595 vs no drug) (fraction); higher = more growth
How it was run: as §1
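Throughout, for Bliss interaction score (quartile over a dose matrix): first quartile when negative (synergy) and third quartile when positive (antagonism).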

CC[C@H]1OC(=O)[C@H](C)[C@@H](O[C@H]2C[C@@](C)(OC)[C@@H](O)[C@H](C)O2)[C@H](C)[C@@H](O[C@@H]2O[C@H](C)C[C@H](N(C)C)[C@H]2O)[C@](C)(O)C[C@@H](C)CN(C)[C@H](C)[C@@H](O)[C@]1(C)O [Azithromycin] + CC1=C(C(=O)O)N2C(=O)[C@@H](NC(=O)[C@H](N)c3ccccc3)[C@H]2SC1 [Cephalexin]
fitness
Conditions	partner 0.125 µg/mL	partner 0.25 µg/mL	partner 0.5 µg/mL	partner 1 µg/mL
B. subtilis 168 [1], first compound 0.25 µg/mL	0.856	0.936	0.899	≥ 1
B. subtilis 168 [1], first compound 0.5 µg/mL	0.823	0.845	0.849	0.867
B. subtilis 168 [1], first compound 1 µg/mL	0.543	–	–	–
S. aureus Newman [2], first compound 0.125 µg/mL	–	0.892	0.918	0.907
S. aureus Newman [2], first compound 0.25 µg/mL	–	0.893	0.915	0.913
S. aureus Newman [2], first compound 0.5 µg/mL	–	0.739	0.719	0.728

Conditions	Bliss interaction score
B. subtilis 168 [3]	0.0757
S. aureus DSM 20231	-0.0843
S. aureus Newman [4]	0.0763
S. pneumoniae D39V [5]	-0.0716

CC[C@H]1OC(=O)[C@H](C)[C@@H](O[C@H]2C[C@@](C)(OC)[C@@H](O)[C@H](C)O2)[C@H](C)[C@@H](O[C@@H]2O[C@H](C)C[C@H](N(C)C)[C@H]2O)[C@](C)(O)C[C@@H](C)CN(C)[C@H](C)[C@@H](O)[C@]1(C)O [Azithromycin] + CC(C1CCC(C(O1)OC2C(CC(C(C2O)OC3C(C(C(CO3)(C)O)NC)O)N)N)N)NC [Gentamicin]
fitness, main component drawn
Conditions	first compound 0.125 µg/mL	first compound 0.25 µg/mL	first compound 0.5 µg/mL
B. subtilis 168 [1], partner 0.0625 µg/mL	–	0.847	–
S. aureus Newman [2], partner 0.5 µg/mL	0.879	0.851	0.742
S. aureus Newman [2], partner 1 µg/mL	0.899	0.901	0.827
S. aureus Newman [2], partner 2 µg/mL	0.942	0.958	0.79

fitness, one replicate, main component drawn
Conditions	partner 0.0625 µg/mL	partner 0.125 µg/mL	partner 0.25 µg/mL	partner 0.375 µg/mL	partner 0.75 µg/mL	partner 1.5 µg/mL
B. subtilis 168 [1], first compound 2 µg/mL	0.482	0.322	0.337	–	–	–
S. aureus Newman [2], first compound 0.125 µg/mL	–	–	–	0.946	0.936	0.954
S. aureus Newman [2], first compound 0.25 µg/mL	–	–	–	≥ 1	0.943	0.911
S. aureus Newman [2], first compound 0.5 µg/mL	–	–	–	0.711	0.62	0.571

main component drawn
Conditions	Bliss interaction score
B. subtilis 168 [3]	0.305
S. aureus DSM 20231	0.106
S. aureus Newman [4]	0.118
S. pneumoniae D39V [5]	-0.0659

CC[C@H]1OC(=O)[C@H](C)[C@@H](O[C@H]2C[C@@](C)(OC)[C@@H](O)[C@H](C)O2)[C@H](C)[C@@H](O[C@@H]2O[C@H](C)C[C@H](N(C)C)[C@H]2O)[C@](C)(O)C[C@@H](C)CN(C)[C@H](C)[C@@H](O)[C@]1(C)O [Azithromycin] + CC[C@H](C)[C@H](N)C1=N[C@H](C(=O)N[C@@H](CC(C)C)C(=O)N[C@H](CCC(=O)O)C(=O)N[C@H](C(=O)N[C@H]2CCCCNC(=O)[C@H](CC(N)=O)NC(=O)[C@@H](CC(=O)O)NC(=O)[C@H](Cc3cnc[nH]3)NC(=O)[C@@H](Cc3ccccc3)NC(=O)[C@H]([C@@H](C)CC)NC(=O)[C@@H](CCCN)NC2=O)[C@@H](C)CC)CS1 [Bacitracin]
fitness, main component drawn
Conditions	partner 18.75 µg/mL	partner 37.5 µg/mL	partner 75 µg/mL	partner 150 µg/mL
B. subtilis 168 [1], first compound 0.25 µg/mL	–	0.907	0.845	0.837
B. subtilis 168 [1], first compound 0.5 µg/mL	–	0.773	0.76	–
S. aureus Newman [2], first compound 0.125 µg/mL	0.654	–	0.0145	–
S. aureus Newman [2], first compound 0.25 µg/mL	–	0.0979	0.0091	–
S. aureus Newman [2], first compound 0.5 µg/mL	–	0.0136	0.0029	–

B. subtilis 168 [1], first compound 2 µg/mL, one replicate, main component drawn
Conditions	fitness
partner 37.5 µg/mL	0.0502
partner 75 µg/mL	0.0262
partner 150 µg/mL	0.0177

main component drawn
Conditions	Bliss interaction score
B. subtilis 168 [3]	0.0819
S. aureus DSM 20231	-0.0556
S. aureus Newman [4]	-0.101
S. pneumoniae D39V [5]	0.0418

CC[C@H]1OC(=O)[C@H](C)[C@@H](O[C@H]2C[C@@](C)(OC)[C@@H](O)[C@H](C)O2)[C@H](C)[C@@H](O[C@@H]2O[C@H](C)C[C@H](N(C)C)[C@H]2O)[C@](C)(O)C[C@@H](C)CN(C)[C@H](C)[C@@H](O)[C@]1(C)O [Azithromycin] + CN(C)c1cc(NC(=O)CNC(C)(C)C)c(O)c2c1C[C@H]1C[C@H]3[C@H](N(C)C)C(O)=C(C(N)=O)C(=O)[C@@]3(O)C(O)=C1C2=O [Tigecycline]
fitness
Conditions	partner 0.039 µg/mL	partner 0.078 µg/mL	partner 0.156 µg/mL
B. subtilis 168 [1], first compound 0.25 µg/mL	0.979	0.873	0.887
B. subtilis 168 [1], first compound 0.5 µg/mL	0.886	0.811	0.839
S. aureus Newman [2], first compound 0.125 µg/mL	0.892	0.908	0.855
S. aureus Newman [2], first compound 0.25 µg/mL	0.88	0.868	0.912
S. aureus Newman [2], first compound 0.5 µg/mL	0.641	0.666	0.622

fitness, B. subtilis 168 [1], one replicate
Conditions	first compound 0.5 µg/mL	first compound 1 µg/mL	first compound 2 µg/mL
partner 0.125 µg/mL	0.894	0.947	0.614
partner 0.25 µg/mL	0.889	0.871	0.48
partner 0.5 µg/mL	0.941	0.826	0.332

Conditions	Bliss interaction score
B. subtilis 168 [3]	0.0692
S. aureus DSM 20231	-0.0977
S. aureus Newman [4]	-0.0615
S. pneumoniae D39V [5]	-0.0801

CC[C@H]1OC(=O)[C@H](C)[C@@H](O[C@H]2C[C@@](C)(OC)[C@@H](O)[C@H](C)O2)[C@H](C)[C@@H](O[C@@H]2O[C@H](C)C[C@H](N(C)C)[C@H]2O)[C@](C)(O)C[C@@H](C)CN(C)[C@H](C)[C@@H](O)[C@]1(C)O [Azithromycin] + CN[C@@H]1[C@H](O[C@H]2[C@H](O[C@H]3[C@H](O)[C@@H](O)[C@H](N=C(N)N)[C@@H](O)[C@@H]3N=C(N)N)O[C@@H](C)[C@]2(O)C=O)O[C@@H](CO)[C@H](O)[C@H]1O [Streptomycin]
fitness
Conditions	first compound 0.125 µg/mL	first compound 0.25 µg/mL	first compound 0.5 µg/mL
B. subtilis 168 [1], partner 2 µg/mL	–	0.943	0.843
B. subtilis 168 [1], partner 4 µg/mL	–	0.807	0.739
S. aureus Newman [2], partner 1 µg/mL	0.881	0.849	–

Conditions	Bliss interaction score
B. subtilis 168 [3]	0.206
S. aureus DSM 20231	0.108
S. aureus Newman [4]	0.102
S. pneumoniae D39V [5]	-0.0455

CC[C@H]1OC(=O)[C@H](C)[C@@H](O[C@H]2C[C@@](C)(OC)[C@@H](O)[C@H](C)O2)[C@H](C)[C@@H](O[C@@H]2O[C@H](C)C[C@H](N(C)C)[C@H]2O)[C@](C)(O)C[C@@H](C)CN(C)[C@H](C)[C@@H](O)[C@]1(C)O [Azithromycin] + CO/N=C(\C(=O)N[C@@H]1C(=O)N2C(C(=O)O)=C(COC(N)=O)CS[C@H]12)c1ccco1 [Cefuroxime]
fitness, one replicate
Conditions	partner 0.04875 µg/mL	partner 0.0975 µg/mL	partner 0.195 µg/mL	partner 1.562 µg/mL	partner 3.125 µg/mL	partner 6.25 µg/mL
B. subtilis 168 [1], first compound 0.25 µg/mL	0.867	0.81	–	0.293	0.262	0.222
B. subtilis 168 [1], first compound 0.5 µg/mL	–	–	–	0.242	0.146	0.0811
B. subtilis 168 [1], first compound 1 µg/mL	–	–	–	0.0319	0.0369	0.0154
B. subtilis 168 [1], first compound 2 µg/mL	0.0565	0.0607	0.0393	–	–	–
S. aureus Newman [2], first compound 0.125 µg/mL	0.967	0.894	0.876	–	–	–
S. aureus Newman [2], first compound 0.25 µg/mL	0.897	0.878	0.802	–	–	–
S. aureus Newman [2], first compound 0.5 µg/mL	0.653	0.612	0.547	–	–	–

fitness, B. subtilis 168 [1]
Conditions	partner 0.04875 µg/mL	partner 0.0975 µg/mL	partner 0.195 µg/mL	partner 0.39 µg/mL	partner 0.78 µg/mL
first compound 0.25 µg/mL	–	–	0.556	0.353	0.305
first compound 0.5 µg/mL	0.708	0.609	–	0.35	0.312
first compound 1 µg/mL	0.463	0.361	0.215	0.171	0.16

Conditions	Bliss interaction score
B. subtilis 168 [3]	0.0595
S. aureus DSM 20231	-0.24
S. aureus Newman [4]	0.0821
S. pneumoniae D39V [5]	0.0571

CC[C@H]1OC(=O)[C@H](C)[C@@H](O[C@H]2C[C@@](C)(OC)[C@@H](O)[C@H](C)O2)[C@H](C)[C@@H](O[C@@H]2O[C@H](C)C[C@H](N(C)C)[C@H]2O)[C@](C)(O)C[C@@H](C)CN(C)[C@H](C)[C@@H](O)[C@]1(C)O [Azithromycin] + O=C(O)c1cn(C2CC2)c2cc(N3CCNCC3)c(F)cc2c1=O [Ciprofloxacin]
fitness
Conditions	first compound 0.125 µg/mL	first compound 0.25 µg/mL	first compound 0.5 µg/mL
B. subtilis 168 [1], partner 0.0098 µg/mL	–	0.886	–
B. subtilis 168 [1], partner 0.0195 µg/mL	–	0.781	0.702
S. aureus Newman [2], partner 0.0375 µg/mL	0.684	0.697	0.547
S. aureus Newman [2], partner 0.075 µg/mL	0.631	0.697	0.581

B. subtilis 168 [1], first compound 2 µg/mL, one replicate
Conditions	fitness
partner 0.0098 µg/mL	0.428
partner 0.0195 µg/mL	0.279
partner 0.039 µg/mL	0.258

Conditions	Bliss interaction score
B. subtilis 168 [3]	0.228
S. aureus DSM 20231	0.105
S. aureus Newman [4]	0.102
S. pneumoniae D39V [5]	-0.0524

CC1=C(C(=O)O)N2C(=O)[C@@H](NC(=O)[C@H](N)c3ccccc3)[C@H]2SC1 [Cephalexin] + C/C(=C\C(=O)OCCCCCCCCC(=O)O)C[C@@H]1OC[C@H](C[C@@H]2O[C@H]2[C@@H](C)[C@H](C)O)[C@@H](O)[C@H]1O [Pseudomonic acid]
fitness, one replicate
Conditions	first compound 0.125 µg/mL	first compound 0.25 µg/mL	first compound 0.5 µg/mL	first compound 1 µg/mL	first compound 2 µg/mL
S. aureus Newman [2], partner 0.0313 µg/mL	–	–	0.0692	0.0733	0.0904
S. aureus Newman [2], partner 0.0625 µg/mL	–	–	0.036	0.0347	0.0466
S. aureus Newman [2], partner 0.125 µg/mL	–	–	0.0496	0.0429	0.049
S. pneumoniae D39V [6], partner 0.03 µg/mL	0.933	0.958	≥ 1	–	–
S. pneumoniae D39V [6], partner 0.06 µg/mL	0.733	0.828	0.893	–	–
S. pneumoniae D39V [6], partner 0.12 µg/mL	0.45	0.559	0.616	–	–

fitness, S. pneumoniae D39V [6]
Conditions	first compound 1 µg/mL	first compound 2 µg/mL	first compound 4 µg/mL
partner 0.03 µg/mL	0.67	–	0.0998
partner 0.06 µg/mL	0.6	–	0.123
partner 0.12 µg/mL	0.38	0.215	0.122

Conditions	Bliss interaction score
B. subtilis 168 [3]	0.0311
S. aureus DSM 20231	0.0119
S. aureus Newman [4]	0.0223
S. pneumoniae D39V [5]	0.154

— the supplement of paper PMC10627819
